# Assay results as given in patent US20230365559A1, “NOVEL AMINOPYRIDINES AND THEIR USE IN TREATING CANCER” (priority 2020, published 2023).
# Assays:
# human DNA-PK = human DNA-PK (Homo sapiens, UniProt P78527); assay: Inhibition of DNA-PKcs kinase activity, HotSpot assay (Reaction Biology), [γ-33P]-ATP phosphorylation of peptide substrate; format: biochemical; settings: 10 μM ATP, 10 μg/ml DNA; mean of two replicates; Table 12; read-out: Inhibition of kinase activity (as IC50) DNA-PK (converted)
# human PI3Kα (p110α/p85α) = human PI3Kα (p110α/p85α) (Homo sapiens, UniProt P42336); assay: Inhibition of PI3Kα kinase activity, ADP-Glo Assay (Reaction Biology); format: biochemical; settings: 10 μM ATP; mean of two replicates; Table 12; read-out: Inhibition of kinase activity (as IC50) PICK
# Chain of human PI3Kα (p110α/p85α) (P42336 whole entry): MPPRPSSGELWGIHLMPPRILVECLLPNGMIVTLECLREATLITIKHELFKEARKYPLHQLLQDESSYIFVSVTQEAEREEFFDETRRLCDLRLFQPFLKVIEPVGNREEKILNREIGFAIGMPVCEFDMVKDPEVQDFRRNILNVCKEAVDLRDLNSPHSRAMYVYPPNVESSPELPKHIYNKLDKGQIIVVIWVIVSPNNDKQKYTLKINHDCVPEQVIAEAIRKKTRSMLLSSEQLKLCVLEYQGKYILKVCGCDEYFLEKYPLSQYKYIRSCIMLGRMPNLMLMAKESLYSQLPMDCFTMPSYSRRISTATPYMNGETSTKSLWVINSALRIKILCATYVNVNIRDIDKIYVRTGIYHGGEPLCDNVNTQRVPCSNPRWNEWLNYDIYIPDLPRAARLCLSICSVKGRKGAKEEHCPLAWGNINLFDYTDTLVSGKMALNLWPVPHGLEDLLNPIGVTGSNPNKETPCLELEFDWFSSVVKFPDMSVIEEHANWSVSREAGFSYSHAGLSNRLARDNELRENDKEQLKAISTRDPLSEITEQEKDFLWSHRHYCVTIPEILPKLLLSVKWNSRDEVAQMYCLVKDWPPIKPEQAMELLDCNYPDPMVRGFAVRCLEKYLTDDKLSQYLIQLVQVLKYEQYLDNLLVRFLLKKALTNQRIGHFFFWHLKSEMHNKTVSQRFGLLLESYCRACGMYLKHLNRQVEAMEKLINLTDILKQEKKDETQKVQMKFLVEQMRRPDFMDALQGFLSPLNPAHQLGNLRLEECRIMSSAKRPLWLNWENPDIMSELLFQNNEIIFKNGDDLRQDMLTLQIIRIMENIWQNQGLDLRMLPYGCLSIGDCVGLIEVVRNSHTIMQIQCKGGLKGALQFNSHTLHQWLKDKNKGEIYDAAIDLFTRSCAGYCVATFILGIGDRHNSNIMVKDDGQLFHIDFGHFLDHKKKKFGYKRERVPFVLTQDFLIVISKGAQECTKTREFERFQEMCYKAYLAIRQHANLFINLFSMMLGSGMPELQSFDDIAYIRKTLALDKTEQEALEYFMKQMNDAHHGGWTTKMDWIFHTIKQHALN
# Chain of human PI3Kα (p110α/p85α) (P27986 whole entry partner): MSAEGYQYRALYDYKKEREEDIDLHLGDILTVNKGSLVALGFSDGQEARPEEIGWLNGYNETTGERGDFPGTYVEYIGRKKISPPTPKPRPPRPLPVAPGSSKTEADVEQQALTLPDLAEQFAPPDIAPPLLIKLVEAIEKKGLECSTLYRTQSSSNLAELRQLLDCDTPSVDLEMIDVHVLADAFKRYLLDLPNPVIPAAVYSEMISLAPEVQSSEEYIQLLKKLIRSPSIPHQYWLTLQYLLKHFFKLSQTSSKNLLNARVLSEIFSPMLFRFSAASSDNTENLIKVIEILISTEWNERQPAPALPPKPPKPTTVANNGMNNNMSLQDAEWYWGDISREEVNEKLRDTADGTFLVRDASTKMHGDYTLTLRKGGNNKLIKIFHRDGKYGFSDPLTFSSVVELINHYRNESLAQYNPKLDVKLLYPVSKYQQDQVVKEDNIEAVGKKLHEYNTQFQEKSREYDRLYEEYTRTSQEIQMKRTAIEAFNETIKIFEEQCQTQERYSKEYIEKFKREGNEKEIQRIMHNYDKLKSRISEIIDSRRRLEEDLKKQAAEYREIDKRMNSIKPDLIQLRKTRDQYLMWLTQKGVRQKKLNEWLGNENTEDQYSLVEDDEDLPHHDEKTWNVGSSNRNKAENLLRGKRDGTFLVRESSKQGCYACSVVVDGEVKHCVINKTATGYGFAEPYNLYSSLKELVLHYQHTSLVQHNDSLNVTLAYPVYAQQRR
# UT-SCC-54C cells [1] = assay: Radiosensitisation of UT-SCC-54C HNSCC cells, regrowth (sulforhodamine B) assay, oxic (Table 16); format: cell-based, human; settings: for IC50: Homo sapiens, read-out: IC50; for S50: compound in combination with 3 Gy of radiation, 50% inhibition of regrowth fraction, UT-SCC-54C; for S50 / radiosensitisation / differential growth inhibition of UT-SCC-54C cells: oxic; for radiosensitisation / differential growth inhibition of UT-SCC-54C cells: 0 or 3 Gy, regrowth assay
# human mTOR = human mTOR (Homo sapiens, UniProt P42345); assay: Inhibition of mTOR kinase activity, HotSpot assay, phosphorylation of 4EPB1; settings: Inhibition of kinase activity (as IC50) mTOR (nM), 10 μM ATP; mean of two replicates; Table 12
# UT-SCC-54C cells [2] = assay: Radiosensitisation of UT-SCC-54C HNSCC cells, clonogenic survival, oxic and anoxic (Table 18); format: cell-based, human
IC50 (human DNA-PK) [nM],IC50 (human PI3Kα (p110α/p85α)) [µM],IC50 (human mTOR) [nM],SMILES,IC50 (UT-SCC-54C cells [1]) [µM],S50 (UT-SCC-54C cells [1]) [µM],radiosensitisation / differential growth inhibition of UT-SCC-54C cells (UT-SCC-54C cells [1]),"D1 (radiation dose for 1% surviving fraction) (UT-SCC-54C cells [2]; 0% O2, compound conc 1 μM) [Gy]","D10 (radiation dose for 10% surviving fraction) (UT-SCC-54C cells [2]; 0% O2, compound conc 1 μM) [Gy]","SER1 (sensitiser enhancement ratio at 1% surviving fraction) (UT-SCC-54C cells [2]; 0% O2, compound conc 1 μM)","SER10 (sensitiser enhancement ratio at 10% surviving fraction) (UT-SCC-54C cells [2]; 0% O2, compound conc 1 μM)","Plating efficiency drug/no drug (UT-SCC-54C cells [2]; 0% O2, compound conc 1 μM, no radiation)","sensitisation of UT-SCC-54C cells selectively under anoxia (UT-SCC-54C cells [2]; oxic vs anoxic, clonogenic survival, FIGS. 9 and 10)"
0.13,0.678,> 100000,"Cc1ccc(S(C)(=O)=O)cc1Nc1cc2c(cn1)n(C)c(=O)n2C1CCOCC1 [Compound 123, 3-Methyl-6-((2-methyl-5-(methylsulfonyl)phenyl)amino)-1-(tetrahydro-2H-pyran-4-yl)-1,3-dihydro-2H-imidazo[4,5-c]pyridin-2-one]",> 10,0.74,,,,,,,
< 0.05,0.264,19500,"COc1ccc(-n2c(=O)n(C)c3cnc(Nc4ccc(O)cc4C)cc32)cc1 [Compound 200, 6-((4-Hydroxy-2-methylphenyl)amino)-1-(4-methoxyphenyl)-3-methyl-1,3-dihydro-2H-imidazo[4,5-c]pyridin-2-one]",> 10,0.31,,,,,,,
390,4.62,42700,"COc1cc(C)c(Nc2cc3c(cn2)n(C)c(=O)n3C2CCOCC2)cc1OC [Compound 216, 6-((4,5-Dimethoxy-2-methylphenyl)amino)-3-methyl-1-(tetrahydro-2H-pyran-4-yl)-1,3-dihydro-2H-imidazo[4,5-c]pyridin-2-one]",> 10,7.4,,,,,,,
52,33.1,76300,"Cc1cc(Cl)cnc1Nc1cc2c(cn1)n(C)c(=O)n2C1CCOCC1 [Compound 217, 6-((5-Chloro-3-methylpyridin-2-yl)amino)-3-methyl-1-(tetrahydro-2H-pyran-4-yl)-1,3-dihydro-2H-imidazo[4,5-c]pyridin-2-one]",> 10,3.9,,,,,,,
94,14.2,68400,"Cc1cc(Cl)ncc1Nc1cc2c(cn1)n(C)c(=O)n2C1CCOCC1 [Compound 218, 6-((6-Chloro-4-methylpyridin-3-yl)amino)-3-methyl-1-(tetrahydro-2H-pyran-4-yl)-1,3-dihydro-2H-imidazo[4,5-c]pyridin-2-one]",> 10,3.1,,,,,,,
58,0.296,11400,"COc1ccc(Nc2cc3c(cn2)n(C)c(=O)n3C2CCC(NC(=O)OCc3cnc([N+](=O)[O-])n3C)CC2)c(C)c1 (stereo not shown) [Compound 253, (1-Methyl-2-nitro-1H-imidazol-5-yl)methyl (4-(6-((4-methoxy-2-methylphenyl)amino)-3-methyl-2-oxo-2,3-dihydro-1H-imidazo[4,5-c]pyridin-1-yl)cyclohexyl)carbamate]",,,,,,,,,
754,39.2,> 100000,"COc1ccc(N(C(=O)OCc2cnc([N+](=O)[O-])n2C)c2cc3c(cn2)n(C)c(=O)n3C2CCC(OC)CC2)c(C)c1 (stereo not shown) [Compound 258, (1-Methyl-2-nitro-1H-imidazol-5-yl)methyl (4-methoxy-2-methylphenyl)(1-(4-methoxycyclohexyl)-3-methyl-2-oxo-2,3-dihydro-1H-imidazo[4,5-c]pyridin-6-yl)carbamate]",> 10,>10,did not display any differential growth inhibition,,,,,,

# Further lines, the compound ahead of its results:
SMILES,IC50 (human DNA-PK) [nM],IC50 (human PI3Kα (p110α/p85α)) [µM],IC50 (human mTOR) [nM],IC50 (UT-SCC-54C cells [1]) [µM],S50 (UT-SCC-54C cells [1]) [µM],radiosensitisation / differential growth inhibition of UT-SCC-54C cells (UT-SCC-54C cells [1]),"D1 (radiation dose for 1% surviving fraction) (UT-SCC-54C cells [2]; 0% O2, compound conc 1 μM) [Gy]","D10 (radiation dose for 10% surviving fraction) (UT-SCC-54C cells [2]; 0% O2, compound conc 1 μM) [Gy]","SER1 (sensitiser enhancement ratio at 1% surviving fraction) (UT-SCC-54C cells [2]; 0% O2, compound conc 1 μM)","SER10 (sensitiser enhancement ratio at 10% surviving fraction) (UT-SCC-54C cells [2]; 0% O2, compound conc 1 μM)","Plating efficiency drug/no drug (UT-SCC-54C cells [2]; 0% O2, compound conc 1 μM, no radiation)","sensitisation of UT-SCC-54C cells selectively under anoxia (UT-SCC-54C cells [2]; oxic vs anoxic, clonogenic survival, FIGS. 9 and 10)"
"Cc1cc2c(cc1Nc1cc3c(cn1)n(C)c(=O)n3C1CCOCC1)OCO2 [Compound 130, 3-Methyl-6-((6-methylbenzo[d][1,3]dioxol-5-yl)amino)-1-(tetrahydro-2H-pyran-4-yl)-1,3-dihydro-2H-imidazo[4,5-c]pyridin-2-one]",3.05,2.53,10800,> 10,0.50,,,,,,,
"Cc1nc2cc(Nc3cc4c(cn3)n(C)c(=O)n4C3CCOCC3)c(C)cc2o1 [Compound 131, 6-((2,6-Dimethylbenzo[d]oxazol-5-yl)amino)-3-methyl-1-(tetrahydro-2H-pyran-4-yl)-1,3-dihydro-2H-imidazo[4,5-c]pyridin-2-one]",47.7,11,13400,> 10,4.8,,,,,,,
"Cc1cc(Cl)ccc1Nc1cc2c(cn1)n(C)c(=O)n2CCC1CCOCC1 [Compound 147, 6-((4-Chloro-2-methylphenyl)amino)-3-methyl-1-(2-(tetrahydro-2H-pyran-4-yl)ethyl)-1,3-dihydro-2H-imidazo[4,5-c]pyridin-2-one]",11,0.49,7900,> 10,0.97,,,,,,,
"COC1CCC(n2c(=O)n(C)c3cnc(Nc4ccc(Cl)cc4C)cc32)CC1 (stereo not shown) [Compound 173, 6-((4-Chloro-2-methylphenyl)amino)-1-(4-methoxycyclohexyl)-3-methyl-1,3-dihydro-2H-imidazo[4,5-c]pyridin-2-one]",0.64,2.17,27500,> 10,0.85,,,,,,,
"Cc1nc(Cl)ccc1Nc1cc2c(cn1)n(C)c(=O)n2C1CCOCC1 [Compound 219, 6-((6-Chloro-2-methylpyridin-3-yl)amino)-3-methyl-1-(tetrahydro-2H-pyran-4-yl)-1,3-dihydro-2H-imidazo[4,5-c]pyridin-2-one]",270,20.8,> 100000,,,,,,,,,
"COc1cnc(Nc2cc3c(cn2)n(C)c(=O)n3C2CCOCC2)c(C)c1 [Compound 220, 6-((5-Methoxy-3-methylpyridin-2-yl)amino)-3-methyl-1-(tetrahydro-2H-pyran-4-yl)-1,3-dihydro-2H-imidazo[4,5-c]pyridin-2-one]",170,24,> 100000,> 10,4.4,,,,,,,
"COc1ccc(Nc2cc3c(cn2)n(C)c(=O)n3C2CCOCC2)c(C)n1 [Compound 221, 6-((6-Methoxy-2-methylpyridin-3-yl)amino)-3-methyl-1-(tetrahydro-2H-pyran-4-yl)-1,3-dihydro-2H-imidazo[4,5-c]pyridin-2-one]",441,9.36,> 100000,,,,,,,,,
"COc1ccc(-c2ccc(Nc3cc4c(cn3)n(C)c(=O)n4C3CCOCC3)cc2)cn1 [Compound 223, 6-((4-(6-Methoxypyridin-3-yl)phenyl)amino)-3-methyl-1-(tetrahydro-2H-pyran-4-yl)-1,3-dihydro-2H-imidazo[4,5-c]pyridin-2-one]",3940,11.8,41200,,,,,,,,,
"Cc1cc2nccnc2cc1Nc1cc2c(cn1)n(C)c(=O)n2C1CCOCC1 [Compound 225, 3-Methyl-6-((7-methylquinoxalin-6-yl)amino)-1-(tetrahydro-2H-pyran-4-yl)-1,3-dihydro-2H-imidazo[4,5-c]pyridin-2-one]",3.4,1.65,58500,> 10,0.27,,,,,,,
"COc1ccc(N(C(=O)OCc2cnc([N+](=O)[O-])n2C)c2cc3c(cn2)n(C)c(=O)n3C2CCCC2)c(C)c1 [Compound 247, (1-Methyl-2-nitro-1H-imidazol-5-yl)methyl (1-cyclopentyl-3-methyl-2-oxo-2,3-dihydro-1H-imidazo[4,5-c]pyridin-6-yl)(4-methoxy-2-methylphenyl)carbamate]",871,> 10,> 100000,> 10,>10,did not display any differential growth inhibition,,,,,,
"COc1ccc(N(C(=O)OCc2ncc([N+](=O)[O-])n2C)c2cc3c(cn2)n(C)c(=O)n3C2CCOCC2)c(C)c1 [Compound 251, (1-Methyl-5-nitro-1H-imidazol-2-yl)methyl (4-methoxy-2-methylphenyl)(3-methyl-2-oxo-1-(tetrahydro-2H-pyran-4-yl)-2,3-dihydro-1H-imidazo[4,5-c]pyridin-6-yl)carbamate]",1260,> 100,> 100000,> 10,>10,did not display any differential growth inhibition,19.50,13.17,1.10,1.06,1.03,provide sensitisation of UT-SCC-54C cells selectively under anoxia
"COc1ccc(Nc2cc3c(cn2)n(C)c(=O)n3C2CCN(C(=O)OCc3cnc([N+](=O)[O-])n3C)CC2)c(C)c1 [Compound 252, (1-Methyl-2-nitro-1H-imidazol-5-yl)methyl 4-(6-((4-methoxy-2-methylphenyl)amino)-3-methyl-2-oxo-2,3-dihydro-1H-imidazo[4,5-c]pyridin-1-yl)piperidine-1-carboxylate]",104,0.74,15600,,,,,,,,,
"Cc1cc(Cl)ccc1N(C(=O)OCc1cnc([N+](=O)[O-])n1C)c1cc2c(cn1)n(C)c(=O)n2C1CCOCC1 [Compound 257, (1-Methyl-2-nitro-1H-imidazol-5-yl)methyl (4-chloro-2-methylphenyl)(3-methyl-2-oxo-1-(tetrahydro-2H-pyran-4-yl)-2,3-dihydro-1H-imidazo[4,5-c]pyridin-6-yl)carbamate]",203,> 100,> 100000,> 10,>10,did not display any differential growth inhibition,,,,,,
